This note sets out measurements from patent publication US11420975B2, “Substituted imidazo[1,5-a]pyrazines as Bruton's tyrosine kinase inhibitors” (TRANSTHERA SCIENCES (NANJING), INC., priority 2018, dated 2022).

Each structure is given as a SMILES string. pIC50: −log10 of the molar value. Where two headings read alike, the source gives them in different places.

One series concerns the target BTK(wt) (Homo sapiens (Human), UniProt Q06187). As to the kind of experiment: In vitro inhibitory activity against BTK(wt) enzyme (33P-ATP filter binding). Type of series: biochemical. As to conditions: class symbols. On the procedure:
(§1) The substrate solution was prepared by adding the substrate poly(Glu, Tyr) sodium salt (Sigma Aldrich, St. Louis, Mo.) to the substrate reaction buffer (20 mM Hepes (pH 7.5), 10 mM MgCl2, 1 mM EGTA, 0.02% Brij35, 0.02 mg/mL BSA, 0.1 mM Na3VO4, 2 mM DTT and 1% DMSO) (final substrate concentration in the reaction solution was 0.2 μM). Test compound was formulated into stock solutions at 10 mM concentration with 100% DMSO, and 3-fold serial dilution for 10 doses was performed in a 384-well cyclic olefin copolymer LDV microplate. […] Test compound in 100% DMSO was then added to the kinase reaction mixture by acoustic liquid transfer technology (Echo 550; nanoliter range) (Labcyte Inc, Sunnyvale, Calif.) and incubated for 20 min at room temperature. 33P-ATP (specific activity 10 μCi/μL) was added to the reaction mixture to initiate the reaction, followed by incubation at room temperature for 2 h. A small portion of the reaction mixture was dropped onto P-81 ion exchange filter paper (Whatman). After washing the unbound phosphate from the filter paper with 0.75% phosphate buffer (three times) and drying, the remaining radioactivity on the filter paper was measured. The kinase activity was expressed as the percentage of the remaining kinase activity in the test sample to the kinase activity in the vehicle (dimethyl sulfoxide) blank control. IC50 values were calculated by curve fitting the data obtained using Prism (GraphPad Software).

Another series has as its target BTK(C481S) (Homo sapiens (Human), UniProt Q06187, C481S). Description: In vitro inhibitory activity against BTK(C481S) enzyme (33P-ATP filter binding). Type of series: biochemical. Conditions: class symbols; read-out: IC50 BTK(C48IS). The method, then:
as §1

Series [1] is described as follows: Pharmacokinetic study in male SD rats, intragastric. Type of series: in vivo. Conditions: rat, 5 mg/kg. The method, then:
Male SD rats were fasted overnight before test. The test drugs were each suspended in a solution of 0.5% methylcellulose (MC) and 0.1% SDS in deionized water (w/w/v), and the suspension, each at a concentration of 1 mg/mL, was administered intragastrically at 5 mL/kg. At 15 min, 30 min, 1 h, 2 h, 4 h, 6 h, 8 h and 24 h after administration, approximately 0.4 mL of whole blood was collected from the orbital venous plexus of the animals and then placed in heparin anticoagulant tubes. Three animals were sampled at each time point and then put to death, and thus sample collection was completed on different individuals. The whole blood sample would be centrifuged within 15 min and centrifuged at 4° C./4200 rpm for 5 min. All plasma samples were stored in a refrigerator at −80±15° C. prior to analysis. An LC-MS/MS (Waters I Class UPLC-Xevo TQD tandem mass spectrometry) assay for the compounds was established prior to sample analysis. The collected plasma was quantitatively analyzed, plasma concentration-time data of animals were analyzed using WinNonlin (professional edition, version 5.2) software, a non-compartmental model was used for concentration analysis, and the pharmacokinetic parameters of the test compounds were calculated.

The subject of another series is TMD-8 xenograft tumor. Description: TMD-8 xenograft tumor model. Type of series: in vivo. Conditions: for TGI: bid. On the procedure: CB17/SCID female mice with serious immune deficiency were purchased from Beijing Vital River Laboratory Animal Technology Co., Ltd. and bred in SPF animal houses. Human TMD-8 cells (Shanghai Junrui-UFBN1682) were cultured in an RPMI 1640 culture medium containing 10% fetal bovine serum, 100 U/mL penicillin and 100 μg/mL streptomycin through monolayer culture in vitro in an incubator (37° C., 5% C02). Routine treatment was performed twice a week for passaging. At a cell saturation of 80%-90% and a required number, the cells were harvested and counted. 0.2 mL (1×10^7) of TMD-8 cells (together with matrigel at a volume ratio of 1:1) were subcutaneously inoculated into the right back of each mouse, and the tumor size could be measured about one week after inoculation. Tumor size was measured using a vernier caliper and tumor volume was calculated using the following formula: tumor volume=(length×width^2)/2.

Sequence of BTK(wt) (Q06187 whole entry): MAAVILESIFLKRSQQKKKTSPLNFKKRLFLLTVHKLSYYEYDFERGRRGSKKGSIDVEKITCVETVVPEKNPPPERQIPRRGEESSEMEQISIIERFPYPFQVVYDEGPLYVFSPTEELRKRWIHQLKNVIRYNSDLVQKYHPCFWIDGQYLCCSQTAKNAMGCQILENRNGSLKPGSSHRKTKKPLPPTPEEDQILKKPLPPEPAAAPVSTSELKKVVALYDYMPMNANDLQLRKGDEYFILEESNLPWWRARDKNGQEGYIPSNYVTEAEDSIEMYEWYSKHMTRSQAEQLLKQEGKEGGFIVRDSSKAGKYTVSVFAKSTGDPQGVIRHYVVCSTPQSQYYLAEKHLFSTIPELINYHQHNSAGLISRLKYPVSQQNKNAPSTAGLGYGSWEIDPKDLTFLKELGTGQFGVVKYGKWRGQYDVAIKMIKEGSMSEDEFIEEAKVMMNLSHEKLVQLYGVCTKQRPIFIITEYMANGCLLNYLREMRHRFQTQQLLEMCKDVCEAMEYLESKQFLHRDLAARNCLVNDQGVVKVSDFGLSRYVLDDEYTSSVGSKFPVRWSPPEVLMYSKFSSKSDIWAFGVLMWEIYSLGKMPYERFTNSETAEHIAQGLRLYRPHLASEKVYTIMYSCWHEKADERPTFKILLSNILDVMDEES
Sequence of BTK(C481S) (Q06187 whole entry C481S): as the sequence (Q06187 whole entry) above, with C481S counted along it

Consider `Nc1nccn2c(C34CCC(NC(=O)CN5CCOCC5)(CC3)C4)nc(-c3ccc(C(=O)Nc4cc(C(F)(F)F)ccn4)cc3)c12` [Compound A-10-10, 4-(8-amino-3-(4-(2-morpholinoacetamido)bicyclo[2.2.1]heptan-1-yl)imidazo[1,5-a]pyrazin-1-yl)-N-(4-(trifluoromethyl)pyridin-2-yl)benzamide], for which the pIC50 (usually the IC50 on a negative log10 scale, so that one unit is a factor of ten) on BTK(wt) is 8.00 to 9.00. The negative logarithm of the IC50 (pIC50) on BTK(C481S) is not below 10.00. Moreover, in series [1] (male, SD, plasma, po), the AUC(0-inf) – broadly, the area under the concentration-time curve extrapolated to infinity – was 73300 ng·h/mL; the Tmax (commonly the time at which the peak concentration occurs) came to 2 h; the half-life (as a rule, the time needed for the level to fall by half in the phase considered) was 3.74 h. Besides, the Cmax – broadly, the highest concentration seen after dosing – in series [1] (male, SD, plasma, po, p.o., read-out: Cmax) was found to be 8320 ng/mL. For the same compound, in series [1] (p.o.), the AUC0-INF came out at 73318 ng·h/mL and the Cmax turned out to be 8323 ng/mL. The “xenograft tumors disappeared (fraction)” value with TMD-8 xenograft tumor (50 mg/kg group, after 27 days of administration) is recorded as 5/8. In the series with TMD-8 xenograft tumor (all dosages), the “tolerance of tumor-bearing mice” value was “good tolerance”. Further, in the series on TMD-8 xenograft tumor (all treatment groups), the “effect on body weight of tumor-bearing mice” value is “no significant weight loss”. For the same compound, in the series with TMD-8 xenograft tumor (intragastric 25 mg/kg), the TGI was determined as 94%. The TGI with TMD-8 xenograft tumor (intragastric 50 mg/kg) is reported as 104%.
